Entries after “also recorded” stand apart in the source; their conditions may differ. Like-named read-outs stand apart in the source and are kept apart here.

The subject of assay [1] is STC-1 cells. Particulars: has been shown; cited from earlier work.
In assay [2] the test system is diabetic mice. Particulars: has been shown; cited from earlier work.
The test system of assay [3] is C57/BL/6J mice and diabetic mouse models. As to conditions: previous studies (Zhang 2013; U.S. Pat. No. 8,664,177); cited from earlier work.
Assay [4] deals with MrgprD^−/− (KO) mice. As to conditions: P<0.05 KO vs. WT. Here is the method:
(§1) The mice were fasted overnight and their fasting glucose levels were measured. […] Blood glucose levels were measured at 30, 60, 90 and 120 minutes after glucose loading.
as §1

Assay [5] has as its target T1, MRGD (Homo sapiens, UniProt Q8TDS7). Put plainly: Calcium mobilization in MRGD over-expressing cells. Type of assay: cell-based. Further details: host or cells: ChemiScreen over-expressing cell line, given as 'HEK 293T cells (Chem-1, EMD Millipore)'. As to conditions: for activation of calcium mobilization: Example 6, FIG. 10, entire dose range. Here is the method: (§2) Cells were grown in DMEM medium containing 10% FBS, 1× non-essential amino acids (Gibco #111450-040), 20 mM HEPES and 250 μg/mL Geneticin® (Gibco #10131-035). Cells were harvested with 0.25% Trypsin/EDTA (Gibco #25200-056), pelleted at 1,200×g for 6 minutes and resuspended in DMEM media described above minus Geneticin®. The cells were seeded at 4×10^4 cells/well/100 μL of a clear bottom/black 96-well plate and grown overnight. The calcium mobilization assays was performed using Screen Quest Fluo-8 Medium Removal Calcium Assay Kit (AAT Bioquest #36308) according to the manufacturer's protocol. Briefly, cells were washed with 100 μL volume of Hank's balanced salt solution, 20 mM HEPES, pH 7.4 and loaded with a buffer containing HBSS, 20 mM HEPES, 1× Pluronic F127 and the Fluo-8 NW dye. The cells were incubated for 30 minutes at 37° C. followed by a 30 minute room temperature incubation. Drug stocks were prepared at 100× concentration and diluted 1:33 in HBSS, 20 mM HEPES, pH 7.4 in a 96-well plate (Corning #3641). Calcium mobilization was measured using the FlexStation 3 (Molecular Devices) at excitation wavelength of 490 nm and emission wavelength of 525 nm. Fluorescence was measured for 180 seconds at 5 second intervals with the addition of compound at a 1:3 dilution after 15 seconds. Peak fluorescence values were calculated using SoftMax Pro 5 (Molecular Devices). The fluorescence values obtained from control wells without cells are subtracted from wells containing treated cells to correct for background. The ratio of fluorescence values of treated cells to vehicle control wells was used to calculate fold activity of the compounds.
MRGD cells (EMD Millipore, MA) were treated with either β-alanine, or alamandine at various concentrations (FIG. 10) and calcium mobilization was monitored using a FlexStation 3 Microplate Reader (Molecular Devices) as described in Example 4.

For assay [6], the target named is GPCR40 (Homo sapiens, UniProt O14842). Particulars: doses of 5 mM and below; FIG. 7A. The procedure: as §2
GPCR40, sequence (O14842 whole entry): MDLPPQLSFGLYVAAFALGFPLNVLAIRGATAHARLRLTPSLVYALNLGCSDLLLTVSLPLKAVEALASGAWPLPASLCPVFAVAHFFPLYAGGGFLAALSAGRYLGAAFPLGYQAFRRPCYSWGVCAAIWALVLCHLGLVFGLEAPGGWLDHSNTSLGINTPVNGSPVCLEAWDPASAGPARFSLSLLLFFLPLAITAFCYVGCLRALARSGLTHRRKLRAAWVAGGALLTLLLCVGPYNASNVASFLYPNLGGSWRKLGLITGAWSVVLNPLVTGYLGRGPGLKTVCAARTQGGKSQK
(§3) The specificity of the agonist activity was determined by testing in the cell lines that over-express GPCR40 and GPCR 109a.

The target of assay [7] is GPCR109a (Homo sapiens, UniProt Q8TDS4). As to conditions: doses of 5 mM and below; FIG. 6A. Here is the method:
as §2, §3

In assay [8] the test system is C57BL/6J mice. In words: Oral glucose tolerance test (OGTT). Particulars: for significance of blood glucose lowering in OGTT / blood glucose in response to a glucose load (OGTT): Example 5, FIG. 9; for blood glucose in response to a glucose load (OGTT): 1, 0.5 and 0.1 mg/g body weight; for overall effect on blood glucose in OGTT: Example 8, FIG. 13, GABA 200 mg/kg, DT-109 1 mg/g, p<0.01 2-way ANOVA; for overall effect on blood glucose in OGTT vs vehicle: Example 9, FIG. 14, DT-110 1 mg/g, alamandine 10 mg/g, metformin 0.2 mg/g. It is filed as in vivo, mouse. The procedure:
C57BL/6J mice were received from Jackson Laboratories at 4 weeks old and aged to 7 weeks and then grouped by body weight into 4 groups of 10. The mice were fasted overnight (12 hours) prior to the assay. Body weights and blood glucose (FreeStyle Lite glucometer) levels were determined. […] At 30, 60, 90, and 120 minutes glucose levels were measured using whole blood collected from the tip of the tail via needle puncture. Upon the final 120 min measurement, food was returned to the mice.
Oral glucose tolerance tests (OGTTs) were performed as described in Example 1.
(§4) C57BL/6J mice were received from Jackson Laboratories at 4 weeks old and aged to 7 weeks and then grouped by body weight into 4 groups of 10. The mice were fasted overnight (12 hours) prior to the assay. Body weights and blood glucose (FreeStyle Lite glucometer) levels were determined. […] At 30, 60, 90, and 120 minutes glucose levels were measured using whole blood collected from the tip of the tail via needle puncture.
as §4

In assay [9] the test system is STC-1 cells. Put plainly: GLP-1 secretion from STC-1 cells (ELISA). Type of assay: cell-based, mouse. As to conditions: STC-1 cells, co-treatment with DT-110, 2 hours; FIG. 3. The procedure: The pathways and sites of action of H89 and U73122 are graphically represented in FIG. 2.
Supernatants were collected for GLP-1 measurement. and the GLP-1 concentration was measured using a total GLP-1 (7-36 and 9-36) ELISA kit according to manufacturer's instruction (Alpco. Salem, N.H.).
Background: ELISA stands for enzyme-linked immunosorbent assay.

In assay [10] the test system is eNOS. Put plainly: eNOS mRNA expression in HUVEC. Type of assay: cell-based, human. As to conditions: FIG. 15. An excerpt:
It has been shown that activation of MRGD by alamandine plays an important role in vasodilation by increasing nitric oxide (NO) production. NO produced by the endothelium is an important protective molecule in the vasculature and is mainly generated by the enzyme endothelial NO synthase (eNOS) in blood vessels. Enhancing the expression of eNOS has been considered as possible therapeutic strategy for reducing cardiovascular risk.

Assay [11] concerns the target T1, MRGD. In words: Calcium mobilization in MRGD cells, antagonist mode. It is filed as cell-based. Further details: host or cells: ChemiScreen over-expressing cell line, given as 'HEK 293T cells (Chem-1, EMD Millipore)'. Particulars: 15 min pre-incubation 30 nM-3 μM, FIG. 11. The procedure:
A similar assay was run in the antagonist mode where cells were first incubated with 0, 30 nM, 300 nM or 3 μM alamandine as shown in FIG. 11 (x-axis) for 15 minutes. Then one of 3 different agonists was added to the wells, at their EC90 and the calcium mobilization recorded.
Background: Calcium assays in cells follow changes in intracellular calcium, usually with a dye or a luminescent sensor.

For assay [12], the target named is MAS-related G-protein-coupled receptor member D (MRGD) (human, UniProt Q8TDS7 1-321). In words: cell-based or functional assay.
MAS-related G-protein-coupled receptor member D (MRGD), sequence (Q8TDS7 whole entry): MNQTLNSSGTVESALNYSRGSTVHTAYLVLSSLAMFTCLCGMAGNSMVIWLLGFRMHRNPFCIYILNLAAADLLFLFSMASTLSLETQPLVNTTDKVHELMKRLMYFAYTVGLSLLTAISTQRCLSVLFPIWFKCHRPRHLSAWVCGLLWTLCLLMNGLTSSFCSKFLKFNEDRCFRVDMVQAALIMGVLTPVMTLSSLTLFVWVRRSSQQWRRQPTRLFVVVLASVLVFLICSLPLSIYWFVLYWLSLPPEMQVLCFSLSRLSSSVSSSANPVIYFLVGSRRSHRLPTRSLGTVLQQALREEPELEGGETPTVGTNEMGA

T1 sequence (Q8TDS7 whole entry): as above
GPCR109a, sequence (Q8TDS4 whole entry): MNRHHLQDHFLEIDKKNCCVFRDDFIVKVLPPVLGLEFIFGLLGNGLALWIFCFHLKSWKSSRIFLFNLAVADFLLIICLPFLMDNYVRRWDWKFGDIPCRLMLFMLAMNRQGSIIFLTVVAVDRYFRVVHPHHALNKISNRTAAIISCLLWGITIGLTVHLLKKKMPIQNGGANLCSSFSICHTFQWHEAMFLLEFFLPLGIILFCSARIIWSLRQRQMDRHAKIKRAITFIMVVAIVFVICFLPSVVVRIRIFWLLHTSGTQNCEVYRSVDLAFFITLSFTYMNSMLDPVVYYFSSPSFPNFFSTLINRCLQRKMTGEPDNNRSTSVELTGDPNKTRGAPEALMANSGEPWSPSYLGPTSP

As for `CC(C)C[C@H](NC(=O)CNC(=O)CN)C(=O)O`, in assay [1], the GLP-1 secretion entry was “stimulate GLP-1 secretion”. The GLP-1 level result in assay [2] is “elevate GLP-1 level”. Moreover, the blood glucose result in assay [3] was “lower blood glucose”. Moreover, the “reduction of blood glucose levels in KO mice compared with WT mice (OGTT)” value in [4] (0.25 mg/g with 2 mg/g glucose oral) and in [4] (0.5 mg/g with 2 mg/g glucose oral) was “significantly impaired” each time. Moreover, in assay [5] (at 5 mM, highest dose used, Example 4), the calcium mobilization activity result is given as “active”. Also, the “agonist activity (Ca2+ flux)” value in assay [6] and in assay [7] was “inactive” throughout. Moreover, the “blood glucose levels during OGTT” value in [8] (Example 1, FIG. 1A, 2 mg/g glucose plus 1.0, 0.5 or 0.1 mg/g oral gavage, 30-120 min) is reported as “lowers blood glucose levels in C57BL/6J mice during OGTT in a dose dependent manner”. Also, the “blood glucose area under curve (AUC) in OGTT” value in assay [8] (Example 1, FIG. 1B, 1.0, 0.5 or 0.1 mg/g oral, p<0.01 vs control) is “significantly lowers blood glucose in mice in a dose dependent manner”. In addition, the “significance of blood glucose lowering in OGTT” value in assay [8] (0.1 mg/g), in [8] (0.5 mg/g) and in assay [8] (1 mg/g) was “significant” throughout. Moreover, the “blood glucose in response to a glucose load (OGTT)” value in assay [8] is on record as “lower blood glucose in response to a glucose load, in a dose-dependent manner”. In assay [8], the “overall effect on blood glucose in OGTT” value was “overall significant effect in lowering blood glucose”.

As to `NCCCC(=O)O` [GABA, gamma amino butyric acid, reference compound], in assay [5] (Example 7, FIG. 12, read-out: half maximal effective concentration (EC50)), the EC50 was around 68 µM. The “overall effect on blood glucose in OGTT” value in [8] is recorded as “overall significant effect in lowering blood glucose”.

As for `O=S(=O)(NCCNC/C=C/c1ccc(Br)cc1)c1cccc2cnccc12` [H89], the “inhibition of DT-110 stimulated GLP-1 secretion” value in assay [9] was “inhibit DT-110 stimulated GLP-1 secretion; also recorded: partially inhibited”.

On to `COc1ccc2c(c1)CC[C@@H]1[C@@H]2CC[C@]2(C)[C@@H](NCCCCCCN3C(=O)C=CC3=O)CC[C@@H]12` [U73122], for which the “inhibition of DT-110 stimulated GLP-1 secretion” value in [9] is on record as “inhibit DT-110 stimulated GLP-1 secretion; also recorded: partially inhibited”.

Turning to `CN(C)C(=N)N=C(N)N` [metformin, reference compound], in assay [8], the “overall effect on blood glucose in OGTT vs vehicle” value is given as “significant effect on blood glucose”. For the same molecule, in assay [8] (Example 9, P<0.001), the “effect on blood glucose compared with alamandine” value is “significantly better than alamandine”.

With `NCCC(=O)O` [β-alanine, reference compound], the EC50 in assay [5] (Example 4, FIG. 8, DT-110 lot 2, read-out: EC50) worked out at 7.5 µM. Besides, the “activation of calcium mobilization” value in assay [5] is listed as “stimulated calcium mobilization”. Also, the “potency relative to DT-110 or DT-109” value in [5] (FIG. 8) is recorded as “more than 10 fold”. Moreover, the “significance of blood glucose lowering in OGTT” value is on record as “did not” in assay [8] (0.1 mg/g), “showed significance” in [8] (0.5 mg/g) and “showed significance” in assay [8] (1 mg/g). For the same molecule, in assay [8], the “blood glucose in response to a glucose load (OGTT)” value is given as “lower blood glucose in response to a glucose load, in a dose-dependent manner”.

For alamandine, in [10] (30 minutes, vs control), the “eNOS mRNA levels” value is on record as “the same”. Further, the figures for the eNOS expression result in [10] (60 minutes) and in assay [10] (120 minutes) were “increased eNOS expression” and “returned to control levels”, respectively. The “effect on DT-109 signaling” value in [11] (DT-109 at EC90) is on record as “did not have any significant effect”. The “effect on DT-110 signaling” value in assay [11] (DT-110 at EC90) is “did not have any significant effect”. Moreover, the “effect on β-alanine signaling” value in [11] (β-alanine at EC90, P<0.05) is recorded as “significantly decreased β-alanine signaling”. In [5], the “activation of calcium mobilization” value was “no activation of calcium mobilization; also recorded: did not”. In addition, the “overall effect on blood glucose in OGTT vs vehicle” value in [8] is reported as “weak but overall significant effect”.

Consider GGL [DT-109, three amino acid peptide glycine-glycine-leucine (GGL)], for which, in [12], the “EC50, calcium mobilization in MRGD over-expressing cells (FIG. 5)” value came to 600 µM and the “EC50, calcium mobilization in the MRGD cell line (FIG. 8)” value was 178 µM.
